Experimental data reported in patent publication US20240299591A1, “Antimicrobial Peptides and Their Use” (priority 2021, published 2024).
In brackets after ≈: the same amount, converted by molar mass. Entries after “also recorded” stand apart in the source; their conditions may differ. Where a SMILES comes first, the peptide text is derived from it.

Assays:
Aspergillus fumigatus = assay type: cell-based
[1] = Viability of reconstructed cornea-like epithelium (eye irritation model); assay type: cell-based; settings: human, reconstructed cornea-like epithelium (RhCE, EpiOcular™)
Method: (§1) FIG. 4a is a graph of the viability reconstructed cornea-like epithelium (RhCE, EpiOcular™) after incubation with MFIGA001. NC=Negative Control; PC=Positive Control. FIG. 4b is a graph of the viability reconstructed cornea-like epithelium (RhCE, EpiOcular™) after incubation with 10 µM of MFIGA001a and MFIGAF001b. NC=Negative Control; PC=Positive Control; A2=MFIGAF001a; and B1=MFIGAF001b.
(§2) MFIGAF001 was also assessed independently by a CRO (Evotec) in an OECD compliant reconstructed cornea-like epithelial cell model (RhCE, EpiOcular™).

[2] = tested on: reconstructed cornea-like epithelium (RhCE, EpiOcular™); assay: as above; assay type: cell-based
Method: as §1, §2

YFP-A. fumigatus = assay: Ex vivo porcine cornea infected with YFP-A. fumigatus, topical treatment, confocal live-cell imaging; design: species or system Aspergillus fumigatus
Method: FIG. 6 contains images of ex vivo corneas infected with YFP-A. fumigatus treated with either PBS or MFIGAF001. All cornea were treated with one drop of reagent every 2 hours for the first 8 hours, then one drop every 8 hours for the remaining 16 hours. Treatment was continued for 72 hours with this treatment regimen. MFIGAF001 was used at 100 mg/L.
FIG. 7 contains images of an ex vivo cornea infected with A. fumigatus treated with MFIGAF001, using the fluorescent confocal live-cell imaging approach with a yellow fluorescent protein (YFP). The yellow fluorescent signal (yellow in the original graphs, white reproduced here) indicates the live fungal burden that penetrated into the corneal tissue. All cornea were treated with one drop of reagent every 2 hours for the first 8 hours, then one drop every 8 hours for the remaining 16 hours. Treatment was continued for 72 hours with this treatment regimen. MFIGAF001 was used at 100 mg/L.
FIG. 8 contains images of an ex vivo cornea infected with A. fumigatus treated with either Natamycin or MFIGAF001, using the fluorescent confocal live-cell imaging approach with a YFP. All cornea were treated with one drop of reagent every 2 hours for the first 8 hours, then one drop every 8 hours for the remaining 16 hours. […]
YFP-A. fumigatus spores were harvested from 3 days old cultures grown on SAB agar at 37° C. in PBST and quantified using a haemocytometer. […]

A. fumigatus = assay: Live cell imaging of A. fumigatus in co-cultures with A549; assay type: cell-based, Aspergillus fumigatus; settings: 2.5 µM, 10 min after addition, 37° C. in RPMI

N=C(N)NCCC[C@@H]1NC(=O)CNC(=O)[C@H](Cc2c[nH]c3ccccc23)NC(=O)[C@H](Cc2ccccc2)NC(=O)[C@H](Cc2c[nH]c3ccccc23)NC(=O)[C@@H](Cc2ccccc2)NC(=O)[C@H](CCCCN)NC(=O)[C@H](CCCCN)NC1=O [MFIGAF001, Cyclo(Arg-Lys-Lys-phe-Trp-Phe-Trp-Gly)] (HELM PEPTIDE1{F.W.G.R.K.K.[dF].W}$PEPTIDE1,PEPTIDE1,1:R1-8:R2$$$V2.0)
IC50 Aspergillus fumigatus (Aspergillus fumigatus; 24 h): 1.4 µg/mL (≈ 1.23 µM)
IC99 Aspergillus fumigatus (Aspergillus fumigatus; Conidia (10% Vogel's), 37° C., 24 h): 5.7 mg/L
IC50 value against major pathogenic fungi (in words) (Aspergillus fumigatus; various fungi, including Aspergillus fumigatus and Fusarium oxysporum): sub-micromolar
viability at 100 µg/mL [1]: 87.3%
viability at 200 µg/mL [1]: 87.2%
viability at 400 µg/mL [1]: 88.6%
viability at 500 µg/mL [1]: 93.7%
Toxicity, reconstructed cornea-like epithelium (FIG. 4) [2]: no obvious toxicity
Live fungal burden in ex vivo cornea (YFP-A. fumigatus; 100 mg/L topical drops, 72 h of treatment, vs saline): reduced fungal burden; also recorded: elimination of live fungal burden
Efficacy ex vivo compared with Natamycin (YFP-A. fumigatus; MFIGAF001 100 mg/L, Natamycin 120 mg/L, 72 hours): comparable efficacy
Selective labelling of A. fumigatus over A549 (A. fumigatus): selectively labels A. fumigatus
